The test system of this data set is HEP3B tumor xenografts. Type of data set: in vivo.
Where [1] appears, read: Hep3B xenograft, 60 mg/kg orally twice daily.

This is an account of results in patent US10912774B2, “Pyrimidine FGFR4 inhibitors” (priority 2013, dated 2021).

In the case of `CCN1CCN(c2ccc(Nc3cc(N(C)C(=O)Nc4c(Cl)c(OC)cc(OC)c4Cl)ncn3)cc2)CC1` [BGJ398], under setting [1], the “efficacy compared with compound 108” value is “efficacy comparable to compound 108” and the “tolerability (health of animals)” value was “had to be terminated on Day 11 due to poor health of animals”.
With `C=CC(=O)Nc1cc(N2CCN(CC)CC2)ccc1Nc1cc(N(C)C(=O)Nc2c(Cl)c(OC)cc(OC)c2Cl)ncn1` [Compound 108, N-(2-(6-(3-(2,6-Dichloro-3,5-dimethoxyphenyl)-1-methylureido)pyrimidin-4-ylamino)-5-(4-ethylpiperazin-1-yl)-phenyl)acrylamide], for the setting “Hep3B xenograft, 25, 37.5 or 50 mg/kg i.p. twice daily”, the “efficacy compared with BGJ398” value is given as “more efficacious than BGJ398 at tolerable dosage levels”.
